Data reported in patent US8372847B2, “Pyrazinone modulator of corticotropin-releasing factor receptor activity” (Bristol-Myers Squibb Company, priority 2008, dated 2013).

Legend:
Male Sprague-Dawley rats = assay: Situational anxiety behavioral model in rats (latency to exit dark cylinder into open field); format: in vivo, rat
Source text: Situational Anxiety Behavioral Studies in Rats. (S)-4-(1-Cyclopropyl-2-methoxyethyl)-6-(6-(difluoromethoxy)-2,5-dimethylpyridin-3-ylamino)-5-oxo-4,5-dihydropyrazine-2-carbonitrile has been evaluated in a situational anxiety model to evaluate its anxiolytic potential. In this model, rats are placed in a small, darkened chamber located in an unfamiliar open field. Vehicle-treated rats spend most of the time within the chamber, consistent with a heightened state of anxiety [Takahashi L. K. et al, Behav. Neurosci. 103: 648-654, (1989)]. This model is sensitive to anxiolytics, including benzodiazepines such as chlordiazepoxide [Yang X-M. et al, J. Pharmacol. Exp. Ther. 255: 1064-1070, (1990)]. In addition, previous CRF1 antagonists, such as DMP696 and DMP904 [McElroy J. F. et al., Psychopharmacology 165: 86-92, (2002); Lelas S. et al., J. Pharmacol. Exp. Ther. 309: 293-302, (2004)] were effective this model. The effects of (S)-4-(1-cyclopropyl-2-methoxyethyl)-6-(6-(difluoromethoxy)-2,5-dimethylpyridin-3-ylamino)-5-oxo-4,5-dihydropyrazine-2-carbonitrile were compared with those of anxiolytic standards chlordiazepoxide (Librium®) and diazepam (Valium®) in this model. Male Sprague-Dawley rats weighing 180-300 g were purchased from Charles River Laboratories (Wilmington, Mass.). The rats were housed individually in suspended wire cages in colony rooms maintained at a constant temperature (21±2° C.) and humidity (50±10%). The rooms were illuminated 12 hours per day. The rats had ad libitum access to food and water throughout the studies. Behavioral studies were conducted between 0600 and 1300 h. Animals were maintained in accordance with the guidelines of the Animal Care and Use Committee of the Bristol-Myers Squibb Company, the “Guide for Care and Use of Laboratory Animals” (Institute of Animal Laboratory Resources, 1996), and the guidelines published in the National Institutes of Health Guide for the Care and Use of Laboratory Animals. Research protocols were approved by the Bristol-Myers Squibb Company Animal Care and Use Committee. All compounds were prepared in 0.25% methylcellulose and administered PO. Chlordiazepoxide, diazepam, and desipramine were purchased from Sigma Chemical Company. (S)-4-(1-Cyclopropyl-2-methoxyethyl)-6-(6-(difluoromethoxy)-2,5-dimethylpyridin-3-ylamino)-5-oxo-4,5-dihydropyrazine-2-carbonitrile was dosed in the volume of 2 ml/kg. All standards were dosed in the volume of 2 ml/kg. For all tests, data were analyzed by analysis of variance, followed by Dunnett's t-tests for individual comparisons. The significance value was set at 0.05. The data are presented in the text and figures as mean±standard error of the mean (SEM). Male Sprague-Dawley rats were habituated to handling and dosing the day before testing. On the day of testing, all compounds were administered PO by gavage 60 minutes before behavioral testing. To initiate testing, each animal was placed in a small galvanized steel cylinder (14 cm length, 10 cm diameter), which was placed lengthwise against one wall of an illuminated open field (106 cm length×92 cm width×50 cm height). The open field was illuminated by a 60-W incandescent bulb and illumination was titrated by a powerstat transformer to a 30-lux reading at the entrance to the cylinder. Behavior was assessed for 15 minutes by a trained observer unaware of treatment assignment. The latency of the animal to exit the cylinder, defined by the placement of all four paws into the open field, and explore the open field was recorded (in seconds). […] The Plexiglas chamber and the cylinder were cleaned with 1.0% glacial acetic acid between animals to prevent olfactory cues from influencing the behavior of subsequently tested animals. Following behavioral testing, animals were sacrificed and plasma samples and brains were taken for analysis of plasma exposure and central receptor occupancy.

CRF1 receptor = molecular target: T1, CRF1 receptor (Rattus norvegicus, UniProt P35353); assay: CRF1 binding assay, 125I-o-CRF competition, rat frontal cortex membrane; settings: n=10; for Hill Slope: 125I-o-CRF binding, rat frontal cortex membrane; for IC50: 5 point and 10 point competition assays, read-out: IC50, inhibition of 125I-o-CRF binding to rat frontal cortex membrane
T1 construct: rat frontal cortex membrane as the receptor source; from tissue; host or cells: rat frontal cortex
T1 sequence (P35353 24-415): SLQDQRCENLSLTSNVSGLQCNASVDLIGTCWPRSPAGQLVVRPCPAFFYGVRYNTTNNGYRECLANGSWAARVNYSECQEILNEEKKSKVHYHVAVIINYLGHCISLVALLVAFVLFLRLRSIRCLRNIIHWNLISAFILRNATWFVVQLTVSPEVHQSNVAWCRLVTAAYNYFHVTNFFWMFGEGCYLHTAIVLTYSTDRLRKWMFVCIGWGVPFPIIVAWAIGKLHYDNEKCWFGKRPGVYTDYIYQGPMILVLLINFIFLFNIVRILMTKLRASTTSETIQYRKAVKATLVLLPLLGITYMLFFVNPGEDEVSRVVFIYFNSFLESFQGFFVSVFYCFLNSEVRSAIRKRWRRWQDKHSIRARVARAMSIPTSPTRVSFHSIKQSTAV
Description: CRF1 Binding Assay. Frozen rat frontal cortex was thawed rapidly in assay buffer containing 50 mM Hepes (pH 7.0 at 23° C.), 10 mM MgCl2, 2 mM EGTA, 1 μg/ml aprotinin, 1 μg/ml leupeptin, 1 μg/ml pepstatin A, 0.005% Triton X-100, 10 U/ml bacitracin and 0.1% ovalbumin and homogenized. The suspension was centrifuged at 32000×g for 30 minutes. The resulting supernatant was discarded and the pellet resuspended by homogenization in assay buffer and centrifuged again. The supernatant was discarded and the pellet resuspended by homogenization in assay buffer and frozen at −70° C. On the day of the experiment aliquots of the homogenate were thawed quickly and 25 μg/well added to 150 pM ^125I-ovine-CRF (^125I-o-CRF) and drugs in a total volume of 100 μl assay buffer. The assay mixture was incubated for 2 hr at 21° C. Bound and free radioligand were then separated by rapid filtration using glass fiber filters (Whatman GF/B, pretreated with 0.3% PEI (polyethylenimine)) on a Brandel Cell Harvester. Filters were then washed multiple times with ice cold wash buffer (PBS w/o Ca^2+ and Mg^2+, 0.01% Triton X-100; pH 7.0 at 23° C.). Non-specific binding was defined using 1 μM DMP696, a CRF1 selective antagonist [Li, Y-W. et al., CNS Drug Reviews 11: 21-52, (2005)]. Filters were then counted in a Wallac Wizard gamma counter. IC50 values were determined in a five point (five drug concentrations) or ten point (ten drug concentrations) competition assay using non-linear regression by Microsoft Excel-fit.
Binding Results. The primary screen to determine binding potency (IC50 value) of (S)-4-(1-cyclopropyl-2-methoxyethyl)-6-(6-(difluoromethoxy)-2,5-dimethylpyridin-3-ylamino)-5-oxo-4,5-dihydropyrazine-2-carbonitrile at the CRF1 receptor was a competition binding experiment utilizing ^125I-o-CRF as the labeled peptide ligand and rat frontal cortex membrane as the receptor source. […] (S)-4-(1-Cyclopropyl-2-methoxyethyl)-6-(6-(difluoromethoxy)-2,5-dimethylpyridin-3-ylamino)-5-oxo-4,5-dihydropyrazine-2-carbonitrile also bound with high affinity to the native CRF1 receptors present on the human retinoblastoma cell line Y79.

Row | Hill Slope (CRF1 receptor) | IC50 (CRF1 receptor) | SMILES | decrease in exit latency (Male Sprague-Dawley rats; 10 mg/kg, positive control, dose-response study) | decrease in exit latency (Male Sprague-Dawley rats; 10 mg/kg, positive control, first single-dose study) | decrease in exit latency (Male Sprague-Dawley rats; 10 mg/kg, positive control, second single-dose study) | decrease in exit latency (Male Sprague-Dawley rats; 10 mg/kg, positive control, third single-dose study) | effect on exit latency (Male Sprague-Dawley rats; 0.56 mg/kg PO, dose-response study) | effect on exit latency (Male Sprague-Dawley rats; 1.0 mg/kg PO, dose-response study) | significant decrease of exit latency (Male Sprague-Dawley rats; 1.0 mg/kg PO, single-dose study) | decrease in exit latency relative to vehicle-treated controls (Male Sprague-Dawley rats; 1.8 mg/kg PO, dose-response study) | decrease in exit latency (Male Sprague-Dawley rats; 1.8 mg/kg PO, single-dose study) | decrease in exit latency relative to vehicle-treated controls (Male Sprague-Dawley rats; 3.0 mg/kg PO, dose-response study) | decrease in exit latency (Male Sprague-Dawley rats; 3.0 mg/kg PO, single-dose study) | lowest effective dose (decrease of exit latency) (Male Sprague-Dawley rats; PO, 60 minutes before testing) | anxiolytic-like effects, potency compared with standards (Male Sprague-Dawley rats; PO, summary)
1 | 1.00±0.02 | 1.39 ± 0.09 nM | COCC(COC)Nc1nc(C)nc2c(-c3ccc(Cl)cc3Cl)c(C)nn12 [DMP696] | 62% | 57% | 74% | 81% | – | – | – | – | – | – | – | – | –
2 | 0.94±0.03 | 0.86 ± 0.04 nM | COC[C@H](C1CC1)n1cc(C#N)nc(Nc2cc(C)c(OC(F)F)nc2C)c1=O [(S)-4-(1-cyclopropyl-2-methoxyethyl)-6-(6-(difluoromethoxy)-2,5-dimethylpyridin-3-ylamino)-5-oxo-4,5-dihydropyrazine-2-carbonitrile] | – | – | – | – | did not significantly alter exit latency | did not significantly alter exit latency | but not of 1.0 mg/kg | 60% | 53% | 56% | 51% | 1.8 mg/kg | comparable potency to the benzodiazepines diazepam and chlordiazepoxide
